IC50 data for 16 compounds are collected here from patent US20100216779A1 (GLAXOSMITHKLINE LLC, priority 2007, published 2010).

Holding throughout (type): cell-based
The test system of experiment [1] is NCI-H929 (multiple myeloma). The experiment in a line: Inhibition of cell proliferation, CellTiter-Glo, NCI-H929. The note with it: Homo sapiens, 72 h. As to the method: C. Inhibition of Cell Proliferation
Cell proliferation was measured by either CellTiter-Glo (measures cellular ATP level as a surrogate for total cell number) or by InCell analyzer (counts number of nuclei as a measure of cell number). For CellTiter-Glo assay, exponentially growing cell lines of different tumor origins, cultured in appropriate media containing 10% fetal bovine serum at 37° C. in a 5% CO2 incubator, were plated at low density (less than 2000 cells/well) in 96-well plates. Twenty four hours post-plating, cells were treated with different concentrations of test compounds ranging from 30 uM to 1.5 nM. Several wells were left untreated as a control. Seventy two hours post-treatment, cell numbers were determined using 50-100 ul per well of CellTiter-Glo (Promega #G7573). Plates were incubated at 37° C. for 30 minutes and the chemiluminescent signal was read on the Victor V or Envison 2100 reader. […]

For experiment [2], the target named is T1, human IGF-1R (NIH-3T3 cells over expressing human IGF-1R) (Homo sapiens, UniProt P08069).
T1 construct: expressed in transfected cells; host or cells: NIH-3T3 (mouse fibroblasts)
The experiment can be described thus: IGF-1R cellular autophosphorylation (DELFIA). The note with it: IGF-1 stimulated. The procedure, abridged:
(§1)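 Autophosphorylation of IGF-1R or IR is measured in NIH-3T3 lines overexpressing each human receptor after 2 h compound pretreatment and a 15 min ligand challenge (IGF-1 30 ng/mL; insulin 3 ug/mL). Fluorescence is normalised to 100% stimulation.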

The next experiment deals with COLO205 (colon). The experiment in a line: Inhibition of cell proliferation, CellTiter-Glo, COLO205. The note with it: Homo sapiens, COLO 205, 72 h. In short, it runs like this:
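Exponentially growing COLO205 cells in medium with 10% FBS were plated below 2000 cells/well at 37 °C, 5% CO2. Untreated wells served as controls.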

The target in experiment [3] is T2, IR (NIH-3T3 cells over expressing human IGF-1R or IR) (Homo sapiens, UniProt P06213).
T2 construct: expressed in transfected cells; host or cells: NIH-3T3 (mouse fibroblasts)
The experiment in a line: IR cellular autophosphorylation (DELFIA). The note with it: NIH-3T3 cells over expressing IR, insulin stimulated. In short, it runs like this:
as §1

T2 sequence (P06213 28-1382): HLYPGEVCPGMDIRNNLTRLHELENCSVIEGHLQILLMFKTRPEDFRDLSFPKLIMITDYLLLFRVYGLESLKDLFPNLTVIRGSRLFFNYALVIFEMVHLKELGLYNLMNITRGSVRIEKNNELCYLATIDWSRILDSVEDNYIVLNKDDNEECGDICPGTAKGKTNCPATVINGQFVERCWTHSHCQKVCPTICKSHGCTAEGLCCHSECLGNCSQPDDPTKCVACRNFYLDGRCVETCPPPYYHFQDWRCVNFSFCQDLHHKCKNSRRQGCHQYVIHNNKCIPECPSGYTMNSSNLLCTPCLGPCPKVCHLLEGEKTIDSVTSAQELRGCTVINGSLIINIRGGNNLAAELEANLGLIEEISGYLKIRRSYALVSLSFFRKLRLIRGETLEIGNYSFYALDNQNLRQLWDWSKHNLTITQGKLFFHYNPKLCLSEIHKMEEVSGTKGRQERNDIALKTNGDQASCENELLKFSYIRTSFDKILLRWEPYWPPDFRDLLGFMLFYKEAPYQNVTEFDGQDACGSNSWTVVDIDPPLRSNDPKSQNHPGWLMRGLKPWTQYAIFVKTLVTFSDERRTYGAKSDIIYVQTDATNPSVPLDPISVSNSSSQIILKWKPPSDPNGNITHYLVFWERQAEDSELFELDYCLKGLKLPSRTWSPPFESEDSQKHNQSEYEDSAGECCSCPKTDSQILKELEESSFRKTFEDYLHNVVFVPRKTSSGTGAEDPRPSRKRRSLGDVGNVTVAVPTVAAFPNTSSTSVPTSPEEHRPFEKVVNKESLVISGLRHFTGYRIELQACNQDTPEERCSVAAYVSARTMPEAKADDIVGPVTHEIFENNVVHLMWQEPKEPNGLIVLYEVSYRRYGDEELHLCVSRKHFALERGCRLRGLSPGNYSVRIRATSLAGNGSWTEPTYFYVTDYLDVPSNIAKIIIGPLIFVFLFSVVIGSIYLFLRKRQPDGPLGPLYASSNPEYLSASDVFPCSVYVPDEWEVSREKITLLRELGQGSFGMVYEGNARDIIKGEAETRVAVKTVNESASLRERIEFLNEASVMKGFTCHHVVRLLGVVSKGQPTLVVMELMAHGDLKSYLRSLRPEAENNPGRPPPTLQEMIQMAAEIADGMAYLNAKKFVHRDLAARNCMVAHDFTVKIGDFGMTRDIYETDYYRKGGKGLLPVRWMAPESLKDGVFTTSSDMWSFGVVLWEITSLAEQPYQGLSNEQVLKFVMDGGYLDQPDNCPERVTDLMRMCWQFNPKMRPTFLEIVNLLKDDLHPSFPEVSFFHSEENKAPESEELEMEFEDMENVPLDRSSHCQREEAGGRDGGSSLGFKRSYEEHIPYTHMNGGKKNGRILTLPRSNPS
T1 sequence (P08069 31-1367): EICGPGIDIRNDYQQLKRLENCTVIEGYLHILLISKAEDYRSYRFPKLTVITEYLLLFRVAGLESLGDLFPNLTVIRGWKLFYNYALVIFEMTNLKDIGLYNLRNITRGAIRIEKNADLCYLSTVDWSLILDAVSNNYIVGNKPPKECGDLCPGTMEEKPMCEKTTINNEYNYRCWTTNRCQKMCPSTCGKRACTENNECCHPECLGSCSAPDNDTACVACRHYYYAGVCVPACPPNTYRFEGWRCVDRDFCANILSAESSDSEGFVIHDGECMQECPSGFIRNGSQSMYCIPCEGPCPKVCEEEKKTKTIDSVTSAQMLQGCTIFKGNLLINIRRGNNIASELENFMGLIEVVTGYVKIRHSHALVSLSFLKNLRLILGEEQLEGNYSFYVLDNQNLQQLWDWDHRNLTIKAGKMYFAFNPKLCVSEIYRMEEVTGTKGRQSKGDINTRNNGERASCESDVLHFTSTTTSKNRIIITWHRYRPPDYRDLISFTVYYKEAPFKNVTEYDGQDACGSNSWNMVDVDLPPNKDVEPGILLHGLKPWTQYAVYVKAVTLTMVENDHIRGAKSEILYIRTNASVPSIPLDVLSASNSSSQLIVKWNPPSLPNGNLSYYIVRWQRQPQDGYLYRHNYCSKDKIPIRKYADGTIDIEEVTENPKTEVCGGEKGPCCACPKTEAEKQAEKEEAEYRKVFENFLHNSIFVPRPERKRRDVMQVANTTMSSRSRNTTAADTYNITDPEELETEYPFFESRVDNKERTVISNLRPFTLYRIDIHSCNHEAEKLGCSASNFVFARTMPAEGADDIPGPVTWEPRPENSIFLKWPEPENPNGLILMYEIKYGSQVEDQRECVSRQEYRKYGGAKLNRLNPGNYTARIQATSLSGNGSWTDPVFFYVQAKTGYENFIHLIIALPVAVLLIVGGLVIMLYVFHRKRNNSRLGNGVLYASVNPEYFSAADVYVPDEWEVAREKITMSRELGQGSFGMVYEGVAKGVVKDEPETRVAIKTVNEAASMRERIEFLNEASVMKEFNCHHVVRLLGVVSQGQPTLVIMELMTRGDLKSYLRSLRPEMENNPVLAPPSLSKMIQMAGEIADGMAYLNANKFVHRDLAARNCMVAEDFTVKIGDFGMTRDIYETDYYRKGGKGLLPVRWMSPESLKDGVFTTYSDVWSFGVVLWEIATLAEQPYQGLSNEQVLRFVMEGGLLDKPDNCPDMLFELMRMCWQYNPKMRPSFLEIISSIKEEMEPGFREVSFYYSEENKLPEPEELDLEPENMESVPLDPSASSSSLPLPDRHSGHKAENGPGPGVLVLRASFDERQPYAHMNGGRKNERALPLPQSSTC

Take `CCCN1CCC(c2cc(OC)c(Nc3nccc(-c4c(-c5ccc(OC)c(C(=O)Nc6c(F)cccc6F)c5)nc5ccccn45)n3)cc2C)CC1` [Example 157, N-(2,6-difluorophenyl)-5-[3-(2-{[5-methyl-2-(methyloxy)-4-(1-propyl-4-piperidinyl)phenyl]-amino}-4-pyrimidinyl)imidazo[1,2-a]pyridin-2-yl]-2-(methyloxy)benzamide]: the IC50 in experiment [1] is less than 250 nM; in experiment [2], less than 100 nM; in the experiment on COLO205 (colon), less than 250 nM; in experiment [3], less than 100 nM.

In the case of `CCCN1CCN(c2ccc(Nc3nccc(-c4c(-c5cccc(C(=O)Nc6c(F)cccc6F)c5)nc5ccccn45)n3)c(OC)c2)CC1` [Example 173, N-(2,6-difluorophenyl)-3-[3-(2-{[2-(methyloxy)-4-(4-propyl-1-piperazinyl)phenyl]amino}-4-pyrimidinyl)imidazo[1,2-a]pyridin-2-yl]benzamide], the IC50 in experiment [1] was 250 to 1000 nM; in experiment [2], less than 100 nM; in the experiment on COLO205 (colon), 250 to 1000 nM; in experiment [3] it was less than 100 nM.

In the case of `COc1cc(C2CCN(CCS(C)(=O)=O)CC2)c(C)cc1Nc1nccc(-c2c(-c3ccc(OC)c(C(=O)Nc4c(F)cccc4F)c3)nc3ccccn23)n1` [Example 163, N-(2,6-difluorophenyl)-5-(3-{2-[(5-methyl-2-(methyloxy)-4-{1-[2-(methylsulfonyl)ethyl]-4-piperidinyl}phenyl)amino]-4-pyrimidinyl}imidazo[1,2-a]pyridin-2-yl)-2-(methyloxy)benzamide], the IC50 in experiment [1] is less than 250 nM; in experiment [2], less than 100 nM; in the experiment on COLO205 (colon), 250 to 1000 nM; in experiment [3], less than 100 nM.

Consider `COc1cc(N2CCN(S(C)(=O)=O)CC2)ccc1Nc1nccc(-c2c(-c3ccc(OC)c(C(=O)Nc4c(F)cccc4F)c3)nc3ccccn23)n1` [Example 233, N-(2,6-difluorophenyl)-2-(methyloxy)-5-{3-[2-({2-(methyloxy)-4-[4-(methylsulfonyl)-1-piperazinyl]phenyl}amino)-4-pyrimidinyl]imidazo[1,2-a]pyridin-2-yl}benzamide], for which the IC50 in experiment [1] was less than 250 nM; in experiment [2], less than 100 nM; in the experiment with COLO205 (colon) it was 250 to 1000 nM; in experiment [3] it was less than 100 nM.

As to `CCCc1cc(C2CCN(CCS(C)(=O)=O)CC2)ccc1Nc1nccc(-c2c(-c3cccc(C(=O)Nc4c(F)cccc4F)c3)nc3ccccn23)n1` [Example 166, N-(2,6-difluorophenyl)-3-(3-{2-[(4-{1-[2-(methylsulfonyl)ethyl]-4-piperidinyl}-2-propylphenyl)amino]-4-pyrimidinyl}imidazo[1,2-a]pyridin-2-yl)benzamide], the IC50 in experiment [1] was 250 to 1000 nM; in experiment [2] it was less than 100 nM; with COLO205 (colon), 250 to 1000 nM; in experiment [3], 100 to 500 nM.

Consider `COc1cc(N2CCC(C3CCN(CCF)CC3)CC2)ccc1Nc1nccc(-c2c(-c3ccc(OC)c(C(=O)Nc4c(F)cccc4F)c3)nc3ccccn23)n1` [Example 96, N-(2,6-difluorophenyl)-5-[3-(2-{[4-[1′-(2-fluoroethyl)-4,4′-bipiperidin-1-yl]-2-(methyloxy)phenyl]amino}-4-pyrimidinyl)imidazo[1,2-a]pyridin-2-yl]-2-(methyloxy)benzamide], for which the IC50 in experiment [1] was 250 to 1000 nM; in experiment [2], less than 100 nM; in the experiment on COLO205 (colon) it was greater than 1000 nM; in experiment [3], less than 100 nM.

Regarding `CCOc1ccc(-c2nc3ccccn3c2-c2ccnc(Nc3ccc(N4CCC(N5CCCCC5)CC4)c(C)c3OC)n2)cc1C(=O)Nc1c(F)cccc1F` [Example 56, 5-[3-(2-{[4-(1,4′-bipiperidin-1′-yl)-3-methyl-2-(methyloxy)phenyl]amino}-4-pyrimidinyl)imidazo[1,2-a]pyridin-2-yl]-N-(2,6-difluorophenyl)-2-(ethyloxy)benzamide], the IC50 in experiment [1] is 250 to 1000 nM; in experiment [2] it was 100 to 500 nM; in the experiment with COLO205 (colon), greater than 1000 nM; in experiment [3], 100 to 500 nM.

`CCCN1CCN(c2ccc(Nc3nccc(-c4c(-c5cccc(C(=O)Nc6c(F)cccc6F)c5)nc5ccccn45)n3)c(OCC)c2)CC1` [Example 153, N-(2,6-difluorophenyl)-3-[3-(2-{[2-(ethyloxy)-4-(4-propyl-1-piperazinyl)phenyl]amino}-4-pyrimidinyl)imidazo[1,2-a]pyridin-2-yl]benzamide]: the IC50 was 250 to 1000 nM in experiment [1], 100 to 500 nM in experiment [2], 250 to 1000 nM with COLO205 (colon) and less than 100 nM in experiment [3].

`COc1cc(N2CCC(CCS(C)(=O)=O)CC2)ccc1Nc1nccc(-c2c(-c3cccc(C(=O)Nc4c(F)cccc4F)c3)nc3ccccn23)n1` [Example 202, N-(2,6-difluorophenyl)-3-(3-{2-[(2-(methyloxy)-4-{4-[2-(methylsulfonyl)ethyl)-1-piperidinyl}phenyl)amino]-4-pyrimidinyl]imidazo[1,2-a]pyridin-2-yl)benzamide]: the IC50 in experiment [1] is less than 250 nM; in experiment [2], 100 to 500 nM; in the experiment on COLO205 (colon), 250 to 1000 nM; in experiment [3], 100 to 500 nM.

As for `COc1cc(N2CCC(N3CCN(CCF)CC3)CC2)c(OC)cc1Nc1nccc(-c2c(-c3cccc(C(=O)Nc4c(F)cccc4F)c3)nc3ccccn23)n1` [Example 111, N-(2,6-difluorophenyl)-3-[3-(2-{[4-{4-[4-(2-fluoroethyl)-1-piperazinyl]-1-piperidinyl}-2,5-bis(methyloxy)phenyl]amino}-4-pyrimidinyl)imidazo[1,2-a]pyridin-2-yl]benzamide], the IC50 was less than 250 nM in experiment [1], less than 100 nM in experiment [2], 250 to 1000 nM in the experiment on COLO205 (colon) and less than 100 nM in experiment [3].

As to `CCOc1cc(C2CCN(CCS(C)(=O)=O)CC2)ccc1Nc1nccc(-c2c(-c3ccc(OCC)c(C(=O)Nc4c(F)cccc4F)c3)nc3ccccn23)n1` [Example 185, N-(2,6-difluorophenyl)-2-(ethyloxy)-5-(3-{2-[(2-(ethyloxy)-4-{1-[2-(methylsulfonyl)ethyl]-4-piperidinyl}phenyl)amino]-4-pyrimidinyl}imidazo[1,2-a]pyridin-2-yl)benzamide], the IC50 was less than 250 nM in experiment [1], less than 100 nM in experiment [2], less than 250 nM with COLO205 (colon) and less than 100 nM in experiment [3].

With `COc1cc(N2CCN(S(C)(=O)=O)CC2)c(C)cc1Nc1nccc(-c2c(-c3cccc(C(=O)Nc4c(F)cccc4F)c3)nc3ccccn23)n1` [Example 226, N-(2,6-difluorophenyl)-3-{3-[2-({5-methyl-2-(methyloxy)-4-[4-(methylsulfonyl)-1-piperazinyl]phenyl}amino)-4-pyrimidinyl]imidazo[1,2-a]pyridin-2-yl}benzamide], the IC50 in experiment [1] is less than 250 nM; in experiment [2] it was less than 100 nM; with COLO205 (colon) it was less than 250 nM; in experiment [3], less than 100 nM.

With `COc1cc(N2CCC(N3CCN(CCS(C)(=O)=O)CC3)CC2)ccc1Nc1nccc(-c2c(-c3cccc(C(=O)Nc4c(F)cccc4F)c3)nc3c(C)cccn23)n1` [Example 67, N-(2,6-difluorophenyl)-3-[8-methyl-3-(2-{[2-(methyloxy)-4-(4-{4-[2-(methylsulfonyl)ethyl)-1-piperazinyl}-1-piperidinyl)phenyl]amino]-4-pyrimidinyl)imidazo[1,2-a]pyridin-2-yl]benzamide], the IC50 in experiment [1] is 250 to 1000 nM; in experiment [2], less than 100 nM; in the experiment on COLO205 (colon), 250 to 1000 nM; in experiment [3], 100 to 500 nM.

On to `CCCN1CCN(c2ccc(Nc3nccc(-c4c(-c5ccc(OC)c(C(=O)Nc6c(F)cccc6F)c5)nc5ccccn45)n3)c(OCC)c2)CC1` [Example 151, N-(2,6-difluorophenyl)-5-[3-(2-{[2-(ethyloxy)-4-[4-propyl-1-piperazinyl)phenyl]amino}-4-pyrimidinyl)imidazo[1,2-a]pyridin-2-yl]-2-(methyloxy)benzamide], for which the half-maximal inhibitory concentration (IC50) was less than 250 nM in experiment [1], less than 100 nM in experiment [2], 250 to 1000 nM in the experiment with COLO205 (colon) and less than 100 nM in experiment [3].

For `COc1cc(N2CCC(C3CCN(CCF)CC3)CC2)ccc1Nc1nccc(-c2c(-c3cccc(C(=O)Nc4c(F)cccc4F)c3)nc3ccccn23)n1` [Example 95, N-(2,6-difluorophenyl)-3-[3-(2-{[4-[1′-(2-fluoroethyl)-4,4′-bipiperidin-1-yl]-2-(methyloxy)phenyl]amino}-4-pyrimidinyl)imidazo[1,2-a]pyridin-2-yl]benzamide], the half-maximal inhibitory concentration (IC50) in experiment [1] was 250 to 1000 nM; in experiment [2] it was less than 100 nM; in the experiment on COLO205 (colon), greater than 1000 nM; in experiment [3] it was 100 to 500 nM.

Regarding `CCOc1cc(N2CCC(N3CCN(S(C)(=O)=O)CC3)CC2)ccc1Nc1nccc(-c2c(-c3cccc(C(=O)Nc4c(F)cccc4F)c3)nc3ccccn23)n1` [Example 224, N-(2,6-difluorophenyl)-3-(3-{2-[(2-(ethyloxy)-4-{4-[4-(methylsulfonyl)-1-piperazinyl]-1-piperidinyl}phenyl)amino]-4-pyrimidinyl}imidazo[1,2-a]pyridin-2-yl)benzamide], the half-inhibitory concentration (IC50) in experiment [1] is less than 250 nM; in experiment [2] it was less than 100 nM; in the experiment on COLO205 (colon), 250 to 1000 nM; in experiment [3] it was less than 100 nM.
